This passage reports IC50 results from patent US10703746B2, “Mutant IDH1 inhibitors useful for treating cancer” (THE UNITED STATES OF AMERICA, AS REPRESENTED BY THE …, priority 2014, dated 2020).

Test [1] concerns the target IDH1 R132C (Homo sapiens, UniProt O75874, R132C). Description: IDH1 R132C enzymatic assay (NADPH depletion coupled to diaphorase/resazurin). It counts as biochemical. The following applies: IDH1 R132C enzymatic inhibition, IC50 class. The protocol:
(§1) Assays were conducted in a 1536-well black solid-bottom plate with a final assay volume of 9 μL.
For IDH1 R132C, 3 μL of enzyme (0.00032 mg/mL IDH1 […], 10% glycerol, 50 mM potassium phosphate pH 6.5, 5 mM MgCl2, 0.03% BSA) were added to the plate, followed by the addition of 23 nL of test compound in DMSO. The plate was lidded and incubated at room temperature for 30 minutes at which time 3 μL of substrate were added (0.012 mM NADPH, 0.6 mM α-KG, 10% glycerol, 50 mM potassium phosphate pH 6.5, 5 mM MgCl2, 0.03% BSA). […]

The target in test [2] is IDH1 R132H (Homo sapiens, UniProt O75874, R132H). Description: IDH1 R132H enzymatic assay (NADPH depletion coupled to diaphorase/resazurin). Format: biochemical. The following applies: IDH1 R132H enzymatic inhibition, IC50 class. The protocol: as §1
Sequence of IDH1 R132H (O75874 whole entry R132H): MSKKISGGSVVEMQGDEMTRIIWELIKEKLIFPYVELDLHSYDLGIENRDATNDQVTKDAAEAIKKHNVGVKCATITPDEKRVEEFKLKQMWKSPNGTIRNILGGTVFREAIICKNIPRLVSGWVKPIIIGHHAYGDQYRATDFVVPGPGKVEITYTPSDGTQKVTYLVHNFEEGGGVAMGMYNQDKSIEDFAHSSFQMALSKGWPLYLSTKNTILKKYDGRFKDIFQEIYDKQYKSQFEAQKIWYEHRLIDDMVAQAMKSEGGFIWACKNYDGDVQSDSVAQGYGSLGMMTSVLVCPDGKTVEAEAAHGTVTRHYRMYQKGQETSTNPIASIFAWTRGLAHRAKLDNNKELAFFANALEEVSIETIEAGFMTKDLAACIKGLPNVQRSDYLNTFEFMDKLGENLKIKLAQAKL
Specifically, for IDH1 R132H, 3 μL of enzyme (4 mM β-ME, 0.0005 mg/mL IDH1 R132H, 150 mM NaCl, 20 mM Tris pH 7.5, 10 mM MgCl2, 0.05% BSA) were added to the plate, followed by the addition of 23 nL of test compound in DMSO. The plate was lidded and incubated at room temperature for 30 minutes at which time 3 μL of substrate were added (0.016 mM NADPH, 2 mM α-KG, 150 mM NaCl, 20 mM Tris pH 7.5, 10 mM MgCl2, 0.05% BSA). This reaction was incubated at room-temperature for 60 minutes at which time the detection mix was added (0.06 mg/mL diaphorase, 0.036 mM resazurin, 150 mM NaCl, 20 mM Tris pH 7.5, 10 mM MgCl2, 0.05% BSA). […]
In general terms: Resazurin is reduced to fluorescent resorufin, in cell work by metabolically active cells.

Sequence of IDH1 R132C (O75874 whole entry R132C): as the sequence (O75874 whole entry R132H) above, with H132C counted along it

A word on the IC50: it is the midpoint of a concentration-inhibition curve. High values mean lower potency, low ones higher potency. With `CCc1cccc(CC)c1-n1c(C)c(C(=O)NC2CCCC(N)C2)cc(-c2nc(-c3ccc(Cl)cc3)cs2)c1=O` (mixture of isomers) [Compound 126], the half-inhibitory concentration (IC50) lay within 1 to 5 µM in test [1] and 5 to 20 µM in test [2].
For `CC1(C)CC(=O)c2cc(-c3nc(-c4ccc(Cl)cc4)cs3)c(=O)n(-c3ccccc3OCc3ccccc3)c2C1` [Compound 1], the half-inhibitory concentration (IC50) in test [1] is 0.3 to 1 µM; in test [2], more than 20 µM.
The like results for `CCc1cccc(CC)c1-n1c(CC(C)C)c(C(=O)N2CCN[C@H](C(=O)OC)C2)cc(-c2nc(-c3ccc(Cl)cc3)cs2)c1=O` [Compound 2] were, in that order, 0.3 to 1 µM and 1 to 5 µM.
`CCOC(=O)c1cc(-c2nc(-c3ccc(Cl)cc3)cs2)c(=O)n(-c2c(CC)cccc2CC)c1-c1ccccc1` [Compound 3]: the concentration for half-maximal inhibition (IC50) in test [1] and in test [2] was more than 20 µM in each case.
As to `CCc1cccc(CC)c1-n1c(CC(C)C)c(C(=O)NCCO)cc(-c2nc(-c3ccc(Cl)cc3)cs2)c1=O` [Compound 4], the half-maximal inhibitory concentration (IC50) in test [1] was 0.3 to 1 µM; in test [2], less than 0.3 µM.
As to `CC1(C)CC(=O)c2cc(-c3nc(-c4ccc(Cl)cc4)cs3)c(=O)n(-c3ccccc3CN)c2C1` [Compound 5], the half-maximal inhibitory concentration (IC50) in test [1] and in test [2] was 5 to 20 µM throughout.
Consider `CCc1cccc(CC)c1-n1c(C)c(C(=O)NCCCN)cc(-c2nc(-c3ccc(Cl)cc3)cs2)c1=O` [Compound 6], for which the half-maximal inhibitory concentration (IC50) in test [1] and in test [2] was 1 to 5 µM in each case.
As to `CCc1cccc(CC)c1-n1c(C)c(C(=O)NC2CCCC2)cc(-c2nc(-c3ccc(Cl)cc3)cs2)c1=O` [Compound 7], the half-maximal inhibitory concentration (IC50) was 1 to 5 µM in test [1] and more than 20 µM in test [2].
As to `CCc1cccc(CC)c1-n1c(CC(C)C)c(C(=O)N2CCN[C@@H](CO)C2)cc(-c2nc(-c3ccc(Cl)cc3)cs2)c1=O` [Compound 8], the 50% inhibitory concentration (IC50) in test [1] and in test [2] was less than 0.3 µM each time.
On to `CC1(C)CC(=O)c2cc(-c3nc(-c4ccc(Cl)cc4)cs3)c(=O)n(-c3ccccc3OC(F)(F)F)c2C1` [Compound 9], for which the IC50 in test [1] was in the range of 0.3 to 1 µM; in test [2], 1 to 5 µM.
The like results for `CCc1cccc(CC)c1-n1c(CC(C)C)c(C(=O)N[C@H](CO)c2ccccc2)cc(-c2nc(-c3ccc(Cl)cc3)cs2)c1=O` [Compound 10] were, in that order, less than 0.3 µM and 0.3 to 1 µM.
In the same order, the values of `CC(c1ccccc1)n1c2c(cc(-c3nc(-c4ccc(Cl)cc4)cs3)c1=O)C(=O)CC(C)(C)C2` (centres unmarked) [Compound 11] are 5 to 20 µM and more than 20 µM.
The like results for `COc1ccccc1-n1c2c(cc(-c3nc(-c4ccc(Cl)cc4)cs3)c1=O)C(=O)CC(C)(C)C2` [Compound 12] were, in that order, 1 to 5 µM and 1 to 5 µM.
With `Cc1noc(C)c1-n1c2c(cc(-c3nc(-c4ccc(Cl)cc4)cs3)c1=O)C(=O)CC(C)(C)C2` [Compound 13], the half-inhibitory concentration (IC50) in test [1] is 1 to 5 µM; in test [2], more than 20 µM.
The like results for `CCc1cccc(CC)c1-n1c(CC(C)C)c(C(=O)O)cc(-c2nc(-c3ccc(Cl)cc3)cs2)c1=O` [Compound 14] were, in that order, 5 to 20 µM and 1 to 5 µM.
In the same order, the values of `CCc1cccc(CC)c1-n1c(C)c(C(=O)NCCNC)cc(-c2nc(-c3ccc(Cl)cc3)cs2)c1=O` [Compound 15] are less than 0.3 µM and 1 to 5 µM.
The like results for `CCc1cccc(CC)c1-n1c(C)c(C(=O)N2CCN[C@H](CO)C2)cc(-c2nc(-c3ccc(Cl)cc3)cs2)c1=O` [Compound 16] were, in that order, 0.3 to 1 µM and 1 to 5 µM.
Take `Cc1cccc(CN2CCN(C)CC2)c1-n1c2c(cc(-c3nc(-c4ccc(Cl)cc4)cs3)c1=O)C(=O)CC(C)(C)C2` [Compound 17]: the IC50 in test [1] and in test [2] was 5 to 20 µM throughout.
On to `CCc1cccc(CC)c1-n1c(C)c(C(=O)NC2CCCC(O)C2)cc(-c2nc(-c3ccc(Cl)cc3)cs2)c1=O` (centres unmarked) [Compound 18], for which the 50% inhibitory concentration (IC50) in test [1] fell in the range of 1 to 5 µM; in test [2], 5 to 20 µM.
The like results for `CC1(C)CC(=O)c2cc(-c3nc(-c4ccc(Cl)cc4)cs3)c(=O)n(C3CCCc4ccccc43)c2C1` (centres unmarked) [Compound 19] were, in that order, 0.3 to 1 µM and more than 20 µM.
The like results for `CCc1cccc(CC)c1-n1c(CC(C)C)c(C(=O)N[C@@H](CO)c2ccccc2)cc(-c2nc(-c3ccc(Cl)cc3)cs2)c1=O` [Compound 20] were, in that order, less than 0.3 µM and 0.3 to 1 µM.
In the same order, the values of `CCc1cccc(CC)c1-n1c(C)c(C(=O)N2CCN[C@@H](C(=O)O)C2)cc(-c2nc(-c3ccc(Cl)cc3)cs2)c1=O` [Compound 21] are 1 to 5 µM and 0.3 to 1 µM.
Take `Cc1ccccc1-n1c2c(cc(-c3nc(-c4ccc(Cl)cc4)cs3)c1=O)C(=O)CC(C)(C)C2` [Compound 22]: the IC50 in test [1] lay in the range of 0.3 to 1 µM; in test [2], 1 to 5 µM.
With `COc1ccc(OC)c(-n2c3c(cc(-c4nc(-c5ccc(Cl)cc5)cs4)c2=O)C(=O)N(C(=O)OC(C)(C)C)CC3)c1` [Compound 23], the IC50 in test [1] is 5 to 20 µM; in test [2] it was more than 20 µM.
For the compound `COc1ccc(OC)c(-n2c3c(cc(-c4nc(-c5ccc(Cl)cc5)cs4)c2=O)C(=O)CC3)c1` [Compound 24], the IC50 in test [1] was 5 to 20 µM; in test [2], more than 20 µM.
For `CC1(C)CC(=O)c2cc(-c3nc(-c4ccc(Cl)cc4)cs3)c(=O)n(-c3ccccc3OC3CC3)c2C1` [Compound 25], the values for the half-maximal inhibitory concentration (IC50) in test [1] and in test [2] were 0.3 to 1 µM and 1 to 5 µM, respectively.
For `Cc1ccc(N)cc1-n1c2c(cc(-c3nc(-c4ccc(Cl)cc4)cs3)c1=O)C(=O)CC(C)(C)C2` [Compound 26], the 50% inhibitory concentration (IC50) in test [1] and in test [2] was 1 to 5 µM throughout.
Consider `COc1ccc(C(=O)O)cc1-n1c2c(cc(-c3nc(-c4ccc(Cl)cc4)cs3)c1=O)C(=O)CC(C)(C)C2` [Compound 27], for which the IC50 in test [1] and in test [2] was 5 to 20 µM in each case.
Take `CCc1cccc(CC)c1-n1c(C(C)C)c(C(=O)N2CCN[C@@H](C(=O)O)C2)cc(-c2nc(-c3ccc(Cl)cc3)cs2)c1=O` [Compound 28]: the concentration for half-maximal inhibition (IC50) in test [1] and in test [2] was less than 0.3 µM in each case.
Regarding `CCc1cccc(CC)c1-n1c(CC(C)C)c(C(=O)NC[C@@H](NC(C)=O)C(=O)O)cc(-c2nc(-c3ccc(Cl)cc3)cs2)c1=O` [Compound 29], the IC50 in test [1] and in test [2] was 1 to 5 µM each time.
On to `CC1(C)CC(=O)c2cc(-c3nc(-c4ccc(F)cc4)cs3)c(=O)n(-c3ccccc3C(F)(F)F)c2C1` [Compound 30], for which the IC50 in test [1] and in test [2] was 0.3 to 1 µM throughout.
`CCc1cccc(CC)c1-n1c(C(C)C)c(C(=O)N2CCNC(C(=O)OC)C2)cc(-c2nc(-c3ccc(Cl)cc3)cs2)c1=O` (centres unmarked) [Compound 31]: the half-inhibitory concentration (IC50) is 0.3 to 1 µM in test [1] and 1 to 5 µM in test [2].
With `CCc1cccc(CC)c1-n1c(C(C)C)c(C(=O)NC)cc(-c2nc(-c3ccc(Cl)cc3)cs2)c1=O` [Compound 32], the IC50 in test [1] and in test [2] was 0.3 to 1 µM throughout.
With `CCc1cccc(CC)c1-n1c(CC(C)C)c(C(=O)NC)cc(-c2nc(-c3ccc(Cl)cc3)cs2)c1=O` [Compound 33], the half-inhibitory concentration (IC50) was less than 0.3 µM in test [1] and 0.3 to 1 µM in test [2].
In the same order, the values of `CCc1cccc(CC)c1-n1c(CC(C)C)c(C(=O)N2CCCC(CO)C2)cc(-c2nc(-c3ccc(Cl)cc3)cs2)c1=O` (centres unmarked) [Compound 34] are 0.3 to 1 µM and 1 to 5 µM.
Take `CCc1cccc(CC)c1-n1c(C(C)C)c(C(=O)NC2CCNCC2)cc(-c2nc(-c3ccc(Cl)cc3)cs2)c1=O` [Compound 35]: the half-inhibitory concentration (IC50) in test [1] and in test [2] was 1 to 5 µM in each case.
As for `CCc1cccc(CC)c1-n1c(C)c(C(=O)N2CCC(C(=O)O)C2)cc(-c2nc(-c3ccc(Cl)cc3)cs2)c1=O` (centres unmarked) [Compound 36], the IC50 in test [1] and in test [2] was more than 20 µM each time.
Turning to `CCc1cccc(CC)c1-n1c(C(C)C)c(C(=O)N2CCNC[C@H]2C)cc(-c2nc(-c3ccc(Cl)cc3)cs2)c1=O` [Compound 37], the IC50 in test [1] was 0.3 to 1 µM; in test [2] it was 1 to 5 µM.
In the same order, the values of `CCc1cccc(CC)c1-n1c(C)c(C(=O)N2CCN[C@@H](C)C2)cc(-c2nc(-c3ccc(Cl)cc3)cs2)c1=O` [Compound 38] are 0.3 to 1 µM and less than 0.3 µM.
In the same order, the values of `CCc1cccc(CC)c1-n1c(CC(C)C)c(C(=O)N2CCNCC2)cc(-c2nc(-c3ccc(OCc4ccccc4)cc3)c(C)s2)c1=O` [Compound 39] are 5 to 20 µM and 5 to 20 µM.
The like results for `CCc1cccc(CC)c1-n1c(C)c(C(=O)N2CCN[C@H](C(=O)OC)C2)cc(-c2nc(-c3ccc(Cl)cc3)cs2)c1=O` [Compound 41] were, in that order, 1 to 5 µM and 5 to 20 µM.
`CNc1ccccc1-n1c2c(cc(-c3nc(-c4ccc(Cl)cc4)cs3)c1=O)C(=O)CC(C)(C)C2` [Compound 42]: the IC50 in test [1] and in test [2] was 1 to 5 µM each time.
In the case of `CCc1cccc(CC)c1-n1c(CC(C)C)c(C(=O)N2CCNCC2C)cc(-c2nc(-c3ccc(Cl)cc3)cs2)c1=O` (centres unmarked) [Compound 43], the concentration for half-maximal inhibition (IC50) is less than 0.3 µM in test [1] and 0.3 to 1 µM in test [2].
